According to article PMC12227648, “Chemoproteomics identifies protein ligands for monoacylglycerol lipids” (Communications Chemistry, 2025):

What was measured:
[1] = biological target: T1, mouse HPCA (Hippocalcin) (Mus musculus, UniProt P84075); test: effect on PG-DA photo-labelling, in-gel fluorescence; settings: HPCA 10 uM, PG-DA 10 uM, 1-PG 0-250 uM, 37 C, 30 min; raises, not competes, probe binding (suggested cooperative)
T1 construct: full-length cDNA in pET45b(+), N-terminal 6x-His tag kept, E. coli BL21 (DE3), HisTrap purified; major ~20 kDa and minor ~25 kDa bands

[2] = biological target: T1, mouse HPCA (Hippocalcin); test: UV photocrosslinking, click rhodamine-azide, in-gel fluorescence; format: binding; settings: probe 10 uM or 0-250 uM, HPCA 10 uM, 50 mM Tris pH 8.0, 37 C, 6 min UV 365 nm, covalent photo-crosslink
[3] = biological target: T2, HPCA (N-terminal FLAG tag) in HEK293T lysates (Mus musculus, UniProt P84075); test: UV photocrosslinking in lysate, click, in-gel fluorescence; format: biochemical; settings: probe 50 uM, 2 mg/mL HEK293T lysate; covalent photo-crosslink; mock control
T2 construct: N-terminal FLAG tag, transiently overexpressed in HEK293T

SMILES: CCCCCCCCCCCCCCCC(=O)OCC(O)CO (stereo not shown) [1-PG]
- effect on PG-DA photo-labelling, in-gel fluorescence [1]: increasing the 1-PG concentration resulted in the heightened binding of the PG-DA probe

SMILES: C#CCCCC1(CCCCCCCCCC(=O)O)N=N1 [PA-DA]
- UV photocrosslinking, click rhodamine-azide, in-gel fluorescence ([2]; weaker control probe): PG-DA probe binds far more to HPCA than the PA-DA probe

SMILES: C#CCCCC1(CCCCCCCCCC(=O)OCC(O)CO)N=N1 (stereo not shown) [PG-DA]
- UV photocrosslinking, click rhodamine-azide, in-gel fluorescence ([2]; Ca2+ surplus versus EDTA compared): PG-DA bound significantly more to mouse HPCA than the PA-DA probe
- UV photocrosslinking in lysate, click, in-gel fluorescence [3]: PG-DA probe, but not PA-DA probe, was able to bind to HPCA in HEK293T lysates
